Laboratory results: PMC10021017 (Journal of the American Chemical Society, 2023)
Blank lines part the entries; values can stand above or below the molecule they belong to.

Key:
[1] = molecular target: T1, HydB (HydABCTk, electron-bifurcating [FeFe]-hydrogenase) (Thermoanaerobacter kivui, UniProt A0A097ATG4); assay: cryoEM; format: binding
T1 sequence (A0A097ATG4 1-630): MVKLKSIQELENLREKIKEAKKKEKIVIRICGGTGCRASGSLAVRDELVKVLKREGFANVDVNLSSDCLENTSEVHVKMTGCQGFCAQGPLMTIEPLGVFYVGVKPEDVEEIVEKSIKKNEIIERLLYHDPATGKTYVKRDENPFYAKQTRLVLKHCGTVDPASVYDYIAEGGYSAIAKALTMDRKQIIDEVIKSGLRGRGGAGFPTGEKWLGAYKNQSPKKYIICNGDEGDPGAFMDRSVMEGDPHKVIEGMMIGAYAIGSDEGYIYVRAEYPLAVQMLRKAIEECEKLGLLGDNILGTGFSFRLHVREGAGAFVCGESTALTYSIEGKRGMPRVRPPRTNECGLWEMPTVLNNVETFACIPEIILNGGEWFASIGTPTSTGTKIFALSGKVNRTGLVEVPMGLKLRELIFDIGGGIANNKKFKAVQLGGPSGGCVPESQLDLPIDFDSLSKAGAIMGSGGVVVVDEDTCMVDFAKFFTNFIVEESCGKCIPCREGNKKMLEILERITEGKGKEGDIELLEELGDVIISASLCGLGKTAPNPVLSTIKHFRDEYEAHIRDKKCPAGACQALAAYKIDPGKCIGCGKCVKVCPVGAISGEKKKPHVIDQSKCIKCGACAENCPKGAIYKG
T1 sequence (A0A097ATG3 1-571 partner): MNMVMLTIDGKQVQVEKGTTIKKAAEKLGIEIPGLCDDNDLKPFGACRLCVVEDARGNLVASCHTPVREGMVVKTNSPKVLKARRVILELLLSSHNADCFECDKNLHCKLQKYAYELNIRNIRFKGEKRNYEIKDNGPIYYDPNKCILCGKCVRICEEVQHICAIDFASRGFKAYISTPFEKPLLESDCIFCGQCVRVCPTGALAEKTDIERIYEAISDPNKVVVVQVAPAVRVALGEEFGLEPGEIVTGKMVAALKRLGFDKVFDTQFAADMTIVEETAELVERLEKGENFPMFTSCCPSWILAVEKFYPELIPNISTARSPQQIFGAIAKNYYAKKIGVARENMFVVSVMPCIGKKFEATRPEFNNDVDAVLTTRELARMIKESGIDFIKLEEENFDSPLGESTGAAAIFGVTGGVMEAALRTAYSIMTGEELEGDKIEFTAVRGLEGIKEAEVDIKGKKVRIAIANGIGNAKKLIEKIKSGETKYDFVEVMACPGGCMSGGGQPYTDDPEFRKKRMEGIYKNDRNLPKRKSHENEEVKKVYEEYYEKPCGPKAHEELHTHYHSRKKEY
T1 sequence (A0A097ATI0 1-170 partner): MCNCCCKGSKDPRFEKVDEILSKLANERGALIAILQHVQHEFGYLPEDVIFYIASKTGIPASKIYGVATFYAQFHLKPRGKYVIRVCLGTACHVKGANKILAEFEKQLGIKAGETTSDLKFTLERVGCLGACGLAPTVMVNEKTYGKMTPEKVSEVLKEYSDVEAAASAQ

HydB (ΔB2-HydABCTk) = HydB (ΔB2-HydABCTk) (Thermoanaerobacter kivui, UniProt A0A097ATG4, C82G/C86G)
[2] = molecular target: HydABC heterotrimer (protomer) of the electron-bifurcating [FeFe]-hydrogenase from Thermoanaerobacter kivui (Thermoanaerobacter kivui); assay: cryo-EM structure
[3] = molecular target: T2, HydB subunit of the electron-bifurcating [FeFe]-hydrogenase HydABC from Thermoanaerobacter kivui (Thermoanaerobacter kivui, UniProt A0A097ATG4 1-630); assay: cryo-EM structure
T2 sequence: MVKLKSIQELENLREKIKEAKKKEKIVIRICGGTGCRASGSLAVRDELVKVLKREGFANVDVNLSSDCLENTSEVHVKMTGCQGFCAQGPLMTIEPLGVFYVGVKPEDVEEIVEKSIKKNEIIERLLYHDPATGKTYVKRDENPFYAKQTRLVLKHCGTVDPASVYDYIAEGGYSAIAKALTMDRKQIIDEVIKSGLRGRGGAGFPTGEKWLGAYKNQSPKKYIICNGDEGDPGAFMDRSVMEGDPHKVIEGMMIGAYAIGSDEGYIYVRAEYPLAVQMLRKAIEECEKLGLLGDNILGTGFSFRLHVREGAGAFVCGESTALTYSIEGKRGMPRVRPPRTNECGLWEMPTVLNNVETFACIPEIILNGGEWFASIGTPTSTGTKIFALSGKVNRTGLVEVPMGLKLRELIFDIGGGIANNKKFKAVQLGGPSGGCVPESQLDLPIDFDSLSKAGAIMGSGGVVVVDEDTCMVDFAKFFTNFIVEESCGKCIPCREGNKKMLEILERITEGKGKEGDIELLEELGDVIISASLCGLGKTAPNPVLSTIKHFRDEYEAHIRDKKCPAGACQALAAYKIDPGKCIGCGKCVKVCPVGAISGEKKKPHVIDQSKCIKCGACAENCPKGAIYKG

Molecule: Cc1cc2nc3c(=O)[nH]c(=O)nc-3n(C[C@H](O)[C@H](O)[C@H](O)COP(=O)(O)O)c2cc1C [FMN]
cryoEM (reduced 3.12 A; oxidized 3.49 A, 8BEW); TLC of bound flavin [1]: modified Rossmann fold with four (instead of six) β-sheets that noncovalently bind the FMN cofactor in a solvent-accessible cavity

Molecule: NC(=O)c1ccc[n+]([C@@H]2O[C@H](COP(=O)(O)OP(=O)(O)OC[C@H]3O[C@@H](n4cnc5c(N)ncnc54)[C@H](OP(=O)(O)O)[C@@H]3O)[C@@H](O)[C@H]2O)c1 [NADP^+]
Kd (HydB (ΔB2-HydABCTk)): 65 to 71 µM

stoichiometry N [2]: 2
Molecule: HydABC heterotrimer (protomer) of the electron-bifurcating [FeFe]-hydrogenase from Thermoanaerobacter kivui (from UniProt A0A097ATG4 1-630; A0A097ATI0 1-170) (complex)

binding result [3]: binds
B1: HydC subunit of the electron-bifurcating [FeFe]-hydrogenase HydABC from Thermoanaerobacter kivui (natural protein)
chain: MCNCCCKGSKDPRFEKVDEILSKLANERGALIAILQHVQHEFGYLPEDVIFYIASKTGIPASKIYGVATFYAQFHLKPRGKYVIRVCLGTACHVKGANKILAEFEKQLGIKAGETTSDLKFTLERVGCLGACGLAPTVMVNEKTYGKMTPEKVSEVLKEYSDVEAAASAQ
